Like-named read-outs stand apart in the source and are kept apart here.
What was measured:
E. maxima [1] = settings: First Study; feces on DOT 26; Salinomycin 60 gms/ton No Vaccine; Cocci Vaccine alone
[2] = system: E. acervulina, E. maxima, and E. tenella; assay: First Study: average coccidia lesion score; type: in vivo, broiler; settings: DOT 26, Johnson and Reid 0 to 4 score, Salinomycin 60 gms/ton No Vaccine, Cocci Vaccine alone
E. acervulina [3] = settings: Third Study; Day 26; 0 to 4 score; Salinomycin 60 g/ton No Vacc; Disclosed compound 1.0/1.0/0.5 lb/ton with Vacc
E. acervulina [4] = settings: First Study; feces on DOT 26; Salinomycin 60 gms/ton No Vaccine; Cocci Vaccine alone
E. acervulina [5] = settings: Third Study; feces Day 26; Salinomycin 60 g/ton No Vacc; Disclosed compound 1.0/1.0/0.5 lb/ton with Vacc
E. tenella [6] = settings: Third Study; feces Day 26; Salinomycin 60 g/ton No Vacc; Disclosed compound 1.0/1.0/0.5 lb/ton with Vacc
E. maxima [7] = settings: Third Study; feces Day 26; Salinomycin 60 g/ton No Vacc; Disclosed compound 1.0/1.0/0.5 lb/ton with Vacc
[8] = system: E. acervuline, E. maxima, and E. tenella; assay: Third Study: broiler performance (feed intake, FCR, weight gain, mortality) under coccidia challenge; type: in vivo, male broiler chicks; settings: Disclosed compound 1.0/1.0/0.5 lb/ton with Vacc
Protocol: (§1) Testing in all three studies set forth below was undertaken using a high oocyst dose vaccine, Coccivac-B52 (trademark, Intervet Inc.), a product sold by Merck Animal Health. According to the manufacturer, Coccivac-B52 contains E. acervulina, E. maxima, E. mivati, and E. tenella. The vaccine was mixed with water at a dosage of 240 ml of water per 1,000 doses. The vaccine-water combination was placed in a sealed vaccine container and mixed by stirring and inversion of the container. The mixed vaccine-water combination was sprayed onto each chick when one day old in a conventional spray cabinet. It was estimated that each chick ingested an equal number of droplets so as to result in the ingestion of about 240 μL dose per chick.
Rations consisted of non-medicated commercial-type broiler starter, grower, and finisher diets compounded according to NRC guidelines and contain feedstuffs commonly used in the United States. Day-of-hatch male broiler chicks were utilized in the study. Rations were fed ad libitum from date of chick arrival as follows: Starter—day 0 until day 14, grower day 14 to day 28, and finisher from day 28 to day 42 (the end date of the study). Coccidia vaccination for treatments 4 and 5 only.
One thousand five hundred birds (1,500) were randomly assigned to 5 treatment groups with 12 replicate pens per treatment and 25 birds per pen. The study began when birds were placed (day-of-hatch; DAY 0), at which time birds were allocated to experimental pens. On day 0, group body weights were recorded by pen. No birds were replaced during the course of the study.
All birds were weighed by pen on days 0, 14, 28, and 42. Feed added to each pen's feeder was weighed at the beginning of each formulation period on day 0 (starter), day 14 (grower), and day 28 (finisher). Feed was distributed as needed to feeders from pre-weighed bags assigned to each pen throughout each period. Feed remaining in feeders was weighed and disposed of on days 14, 28, and 42. The trial was terminated on day 42.

E. tenella [9] = settings: First Study; feces on DOT 26; Salinomycin 60 gms/ton No Vaccine; Cocci Vaccine alone
E. maxima [10] = settings: Third Study; Day 26; 0 to 4 score; Salinomycin 60 g/ton No Vacc; Disclosed compound 1.0/1.0/0.5 lb/ton with Vacc
[11] = system: E. acervuline, E. maxima, and E. tenella; assay: Third Study: broiler performance (feed intake, FCR, weight gain, mortality) under coccidia challenge; type: in vivo, male broiler chicks; settings: Day 0 to 41, challenge day 21, Salinomycin 60 g/ton No Vacc, Disclosed compound 1.0/1.0/0.5 lb/ton with Vacc
E. acervulina [12] = settings: First Study; DOT 26; Johnson and Reid 0 to 4 score; Salinomycin 60 gms/ton No Vaccine; Cocci Vaccine alone
E. maxima [13] = settings: First Study; DOT 26; Johnson and Reid 0 to 4 score; Salinomycin 60 gms/ton No Vaccine; Cocci Vaccine alone
[14] = system: E. acervulina, E. maxima, and E. tenella; assay: Third Study: average coccidia lesion score; type: in vivo, male broiler chicks; settings: Day 26, 0 to 4 score, Salinomycin 60 g/ton No Vacc, Disclosed compound 1.0/1.0/0.5 lb/ton with Vacc
[15] = system: E. acervulina, E. maxima, and E. tenella; assay: First Study: broiler performance (feed intake, FCR, weight gain, mortality) under coccidia challenge; type: in vivo; settings: Cocci Vaccine alone
Protocol: as §1
The rations consisted of non-medicated commercial-type broiler starter, grower, and finisher diets compounded according to NRC guidelines and contained feedstuffs commonly used in the United States. As a common regime rations for some but not necessarily all studies were fed ad libitum from date of chick arrival as follows: Starter—DOT 0 until DOT 14, grower DOT 14 to DOT 28, and finisher from DOT 28 to DOT 42 (study termination).
Diets were fed as crumbles in starter and pellets in grower and finisher. Experimental treatment feeds were prepared from a basal feed formulation. Quantities of all basal feed and test articles included in treatment group batches were documented and included with source data files. Treatment feeds were mixed prior to pelleting to assure uniform distribution of respective test articles.
Fifteen hundred birds (1,500) were assigned to six (6) treatment groups with ten (10) replicate pens per treatment and 25 birds per pen. The study began when birds were placed (day-of-hatch; DOT 0), at which time birds were allocated to experimental pens. Only healthy birds were selected. On DOT 0, group body weights were recorded by pen. No birds were replaced during the course of the study.
Birds received treatment-appropriate feed from day 0 to day 42. On day 14, remaining starter feed was removed, weighed, and replaced with grower feed to day 28. On day 28, the remaining grower feed was removed, weighed back, and replaced with finisher feed to day 42.
On Day 42, the trial was terminated.

[16] = system: E. acervulina, E. maxima, and E. tenella; assay: Third Study: total oocysts per gram of feces; type: in vivo, male broiler chicks
E. tenella [17] = settings: First Study; DOT 26; Johnson and Reid 0 to 4 score; Salinomycin 60 gms/ton No Vaccine; Cocci Vaccine alone
[18] = system: E. acervulina, E. maxima, and E. tenella; assay: First Study: total oocysts per gram of feces; type: in vivo, broiler; settings: feces on DOT 26, Salinomycin 60 gms/ton No Vaccine, Cocci Vaccine alone
E. tenella [19] = settings: Third Study; Day 26; 0 to 4 score; Salinomycin 60 g/ton No Vacc; Disclosed compound 1.0/1.0/0.5 lb/ton with Vacc
[20] = Day 0 to 14, challenge day 21, Salinomycin 60 g/ton No Vacc
[21] = Day 0 to 28, challenge day 21, Salinomycin 60 g/ton No Vacc
[22] = Day 0 to 14, cocci challenge Day 20, Salinomycin 60 gms/ton No Vaccine
[23] = Day 0 to 28, cocci challenge Day 20, Salinomycin 60 gms/ton No Vaccine
[24] = Day 0 to 42, cocci challenge Day 20, Salinomycin 60 gms/ton No Vaccine

CC[C@@H](C(=O)[C@@H](C)[C@@H](O)[C@H](C)[C@@H]1O[C@@H]([C@@H](CC)C(=O)O)CC[C@@H]1C)[C@H]1O[C@]2(C=C[C@@H](O)[C@]3(CC[C@@](C)([C@H]4CC[C@](O)(CC)[C@H](C)O4)O3)O2)[C@H](C)C[C@@H]1C [Salinomycin]
OPG M (E. maxima [1]): 2615A oocysts per gram | Mean Coccidia Lesion Score, Average [2]: 1.97BC | Mean Coccidia Lesion Score, E. acervulina (E. acervulina [3]): 2.31A | OPG A (E. acervulina [4]): 49418AB oocysts per gram | OPG A (E. acervulina [5]): 23,995A oocysts per gram | OPG T (E. tenella [6]): 21,455A oocysts per gram | OPG M (E. maxima [7]): 9,666A oocysts per gram | Adjusted FCR (FCR adjusted for mortality) [8, 20]: 1.41A | Feed Intake [8, 20]: 12.09A | Non-Adjusted FCR [8, 20]: 1.42A | Weight Gain [8, 20]: 0.34B kg | Adjusted FCR (FCR adjusted for mortality) [8, 21]: 1.50AB | Feed Intake [8, 21]: 44.75B | Non-Adjusted FCR [8, 21]: 1.51B | Weight Gain [8, 21]: 1.20B kg | OPG T (E. tenella [9]): 834A oocysts per gram | Mean Coccidia Lesion Score, E. maxima (E. maxima [10]): 1.78AB | Adjusted FCR (FCR adjusted for mortality) [11]: 1.60AB | Cocci Percent Mortality [11]: 0.00A Percent | Feed Intake [11]: 92.63B | Non-Adjusted FCR [11]: 1.61BC | Percent Mortality [11]: 1.33B Percent | Weight Gain [11]: 2.49BC kg | Percent Mortality ([11]; listed as salinomycin): 1.33% | Mean Coccidia Lesion Score, E. acervulina (E. acervulina [12]): 1.80BC | Mean Coccidia Lesion Score, E. maxima (E. maxima [13]): 1.93A | Mean Coccidia Lesion Score, Average [14]: 2.04AB | Adjusted FCR (feed conversion ratio adjusted for mortality) [15, 22]: 1.58A | Feed Intake [15, 22]: 11.48A | Non-Adjusted FCR [15, 22]: 1.60A | Weight Gain [15, 22]: 0.31B kg | Adjusted FCR (feed conversion ratio adjusted for mortality) [15, 23]: 1.64B | Feed Intake [15, 23]: 38.69C | Non-Adjusted FCR [15, 23]: 1.78AB | Weight Gain [15, 23]: 1.01B kg | Adjusted FCR (feed conversion ratio adjusted for mortality) [15, 24]: 1.67B | Cocci Percent Mortality [15, 24]: 8.40A Percent | Feed Intake [15, 24]: 80.16B | Non-Adjusted FCR [15, 24]: 1.81AB | Percent Mortality [15, 24]: 18.00A Percent | Weight Gain [15, 24]: 2.39AB kg | count of oocysts among groups ([16]; day of feces collection (day 27)): highest count of oocysts | Total OPG ([16]; feces Day 26, Salinomycin 60 g/ton No Vacc, Disclosed compound 1.0/1.0/0.5 lb/ton with Vacc): 55,117A oocysts per gram | Mean Coccidia Lesion Score, E. tenella (E. tenella [17]): 2.17AB | Total OPG [18]: 52866AB oocysts per gram | Mean Coccidia Lesion Score, E. tenella (E. tenella [19]): 2.03AB

Source: patent US12599657B2 (priority 2020, dated 2026)
